Assay [1] deals with Mus musculus. The assay is described as follows: Compound was tested for the ability to suppress humoral immune response in mice treated for days -2,-1,and 0 at dose of 100 mg/kg (control = 9.5). The assay is classed as functional.
Assay [2] has as its system Mus musculus. The assay is described as follows: Compound was tested for the ability to suppress skin-graft rejection in mice treated daily from day of graft transfer until rejection at dose of 75 mg/kg (control = 12+/-0.21).
For assay [3], the system named is Mus musculus. The assay is described as follows: Effect of compound on induction of cellular immunity was studied at different dose of 50 mg/kg. (control = 12+/-0.21). The assay is classed as functional.
Assay [4] concerns Mus musculus. The assay is described as follows: Compound was tested for the ability to suppress skin-graft rejection in mice treated daily from day of graft transfer until rejection at dose of 100 mg/kg (control = 12+/-0.21).
The test system of assay [5] is Mus musculus. Put plainly: Compound was tested for the ability to suppress humoral immune response in mice treated for days 0,+1,and +2 at dose of 100 mg/kg (control = 10.0).
In assay [6] the test system is Mus musculus. The assay is described as follows: Effect of compound on induction of cellular immunity was studied at different dose of 15 mg/kg (control = 12+/-0.2). Type of assay: functional.
In assay [7] the test system is Mus musculus. Put plainly: Compound was tested for the ability to suppress humoral immune response in mice treated for days -2,-1,and 0 at dose of 25 mg/kg (control = 9.5). Type of assay: functional.
Assay [8] relates to Mus musculus. The assay is described as follows: Compound was tested for the ability to suppress humoral immune response in mice treated for days 0,+1,and +2 at dose of 25 mg/kg (control = 7.0). Type of assay: functional.
In assay [9] the test system is Mus musculus. Put plainly: Compound was tested for the ability to suppress humoral immune response in mice treated for days 0,+1,and +2 at dose of 25 mg/kg (control = 8.9).
The test system of assay [10] is Mus musculus. The assay is described as follows: Compound was tested for the ability to suppress humoral immune response in mice treated for days -2,-1,and 0 at dose of 100 mg/kg (control = 8.1). The assay is classed as functional.
Assay [11] relates to Mus musculus. The assay is described as follows: Compound was tested for the ability to suppress humoral immune response in mice treated for days 0,+1,and +2 at dose of 100 mg/kg (control = 8.9). The assay is classed as functional.
The test system of assay [12] is Mus musculus. The assay is described as follows: Compound was tested for the ability to suppress humoral immune response in mice treated for days -2,-1,and 0 at dose of 50 mg/kg (control = 8.1). Type of assay: functional.
Assay [13] has as its system Mus musculus. The assay is described as follows: Compound was tested for the ability to suppress humoral immune response in mice treated for days 0,+1,and +2 at dose of 50 mg/kg (control = 8.9). Type of assay: functional.
The subject of assay [14] is Mus musculus. The assay is described as follows: Compound was tested for the ability to suppress humoral immune response in mice treated for days 0,+1,and +2 at dose of 100 mg/kg (control = 9.0). Type of assay: functional.
Assay [15] concerns Mus musculus. Put plainly: Compound was tested for the ability to suppress humoral immune response in mice treated for days 0,+1,and +2 at dose of 100 mg/kg (control = 6.5). The assay is classed as functional.
Assay [16] concerns Mus musculus. Put plainly: Compound was tested for the ability to suppress humoral immune response in mice treated for days 0,+1,and +2 at dose of 180 mg/kg (control = 9.1). The assay is classed as functional.
In assay [17] the test system is Mus musculus. The assay is described as follows: Compound was tested for the ability to suppress humoral immune response in mice treated for days 0,+1,and +2 at dose of 50 mg/kg (control = 9.0). The assay is classed as functional.
The test system of assay [18] is Mus musculus. Put plainly: Compound was tested for the ability to suppress humoral immune response in mice treated for days -2,-1,and 0 at dose of 100 mg/kg (control = 10.3). The assay is classed as functional.
The subject of assay [19] is Mus musculus. Put plainly: Compound was tested for the ability to suppress humoral immune response in mice treated for days 0,+1,and +2 at dose of 180 mg/kg (control = 9.0). The assay is classed as functional.
Assay [20] relates to Mus musculus. Put plainly: Compound was tested for the ability to suppress humoral immune response in mice treated for days 0,+1,and +2 at dose of 50 mg/kg (control = 6.5). Type of assay: functional.
The subject of assay [21] is Mus musculus. The assay is described as follows: Compound was tested for the ability to suppress humoral immune response in mice treated for days -2,-1,and 0 at dose of 50 mg/kg (control = 10.3). Type of assay: functional.

SMILES strings stand for the structures.

With `Nc1ncnc2c(N[C@@H]3O[C@H](CO)[C@@H](O)[C@@H]3O)ncnc12`, the values for the Mean hemagglutination titers with Mus musculus [1] and in the assay with Mus musculus [5] were 8.7 and 11, respectively. Besides, the mean survival time is on record as 13 with Mus musculus [2], 14 in the assay on Mus musculus [3] and 16 with Mus musculus [4].
With `Nc1ncnc2c(N[C@@H]3O[C@H](CO)[C@@H](O)[C@H]3O)ncnc12`, the mean survival time in the assay with Mus musculus [6] came to 21. The results for the Mean hemagglutination titers in the assay on Mus musculus [7] and in the assay on Mus musculus [8] were 8.5 and 0, respectively.
As for `Nc1ccn([C@@H]2O[C@H](CO)[C@@H](O)[C@@H]2O)c(=O)n1` [CYTARABINE], in the assay with Mus musculus [8], the Mean hemagglutination titers was found to be 3.4.
Take `Sc1ncnc2nc[nH]c12` [MERCAPTOPURINE ANHYDROUS]: the Mean hemagglutination titers in the assay with Mus musculus [9] was 7.5; with Mus musculus [10] it was 3.4; in the assay on Mus musculus [11] it was 4.1; with Mus musculus [12] it was 7.5; in the assay with Mus musculus [13] it was 7.2.
Turning to `OC[C@H]1O[C@@H](n2cnc3c(S)ncnc32)[C@H](O)[C@@H]1O` [THIOINOSINE], the Mean hemagglutination titers was determined as 7.4 in the assay with Mus musculus [14]; 7.2 with Mus musculus [15]; 8.7 in the assay on Mus musculus [16]; 8.4 with Mus musculus [10]; 8.5 in the assay with Mus musculus [12]; 9.1 with Mus musculus [17]. Besides, the Mean hemagglutination titers was found to be 8.3 with Mus musculus [18], 6.4 in the assay with Mus musculus [19], 7.2 in the assay on Mus musculus [20] and 8.3 in the assay on Mus musculus [21].

The values are drawn from ChEMBL document CHEMBL1121811, “Synthesis and biological evaluation of certain 2'-deoxy-beta-D-ribo- and -beta-D-arabinofuranosyl nucleosides of purine-6-carboxamide and 4,8-diaminopyrimido[5,4-d]pyrimidine” (1981).
